Here are results for 30 molecules from patent US11021481B2, “Substituted isoindolin-1-ones and 2,3-dihydro-1h-pyrrolo[3,4-c]pyridin-1-ones as HPK1 antagonists” (Nimbus Saturn, Inc., priority 2019, dated 2021).

Where a name gives a salt, the structure may show the parent alone. Some results are limits rather than exact numbers.

Chain of HPK1 (Q92918 whole entry): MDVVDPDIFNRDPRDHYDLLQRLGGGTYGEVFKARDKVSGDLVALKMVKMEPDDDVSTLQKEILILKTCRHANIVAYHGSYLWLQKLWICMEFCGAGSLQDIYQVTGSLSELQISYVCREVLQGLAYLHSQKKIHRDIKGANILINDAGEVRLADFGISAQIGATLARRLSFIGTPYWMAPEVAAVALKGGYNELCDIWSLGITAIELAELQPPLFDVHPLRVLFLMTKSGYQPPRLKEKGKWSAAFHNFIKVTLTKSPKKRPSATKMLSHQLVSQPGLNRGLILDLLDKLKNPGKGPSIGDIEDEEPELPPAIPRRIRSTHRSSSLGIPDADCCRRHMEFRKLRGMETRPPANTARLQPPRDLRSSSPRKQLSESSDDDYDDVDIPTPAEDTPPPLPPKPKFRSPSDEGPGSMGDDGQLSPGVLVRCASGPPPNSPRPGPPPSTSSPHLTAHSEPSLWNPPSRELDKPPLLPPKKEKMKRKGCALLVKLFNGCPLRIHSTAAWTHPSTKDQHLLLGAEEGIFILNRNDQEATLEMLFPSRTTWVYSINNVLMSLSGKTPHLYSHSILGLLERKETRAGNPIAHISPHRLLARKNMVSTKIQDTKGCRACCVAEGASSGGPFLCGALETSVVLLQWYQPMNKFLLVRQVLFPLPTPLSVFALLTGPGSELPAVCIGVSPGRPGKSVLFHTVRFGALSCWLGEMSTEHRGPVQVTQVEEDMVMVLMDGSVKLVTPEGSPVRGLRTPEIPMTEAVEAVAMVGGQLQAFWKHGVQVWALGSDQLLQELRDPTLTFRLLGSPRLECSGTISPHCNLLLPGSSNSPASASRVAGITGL

In this assay the target is HPK1 (Homo sapiens (Human), UniProt Q92918). In words: HPK1 biochemical enzyme assay (microfluidic mobility shift assay). Particulars: 1.5 nM HPK1, ATP 1 mM final, 30 min preincubation, 60 min at RT, Caliper EZ Reader; read-out: HPK1 1000UMATP caliper IC50. An outline of the steps:
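Mobility shift readout of HPK1 activity after a 60 min RT reaction with 1 mM ATP, 1 μM substrate and 5 mM MgCl2. Enzyme/substrate mix was first exposed to compounds for 30 min, using ten-point curves topping at 3 μM final.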
In the case of `O=C1NCc2c(-c3cnc4cc(CN5CC(F)C5)ccn34)ccc(Nc3ccc(N4CCC(O)CC4)cn3)c21` [I-378, 4-(7-((3-fluoroazetidin-1-yl)methyl)imidazo[1,2-a]pyridin-3-yl)-7-((5-(4-hydroxy-piperidin-1-yl)pyridin-2-yl)amino)isoin-dolin-1-one], the half-inhibitory concentration (IC50) – broadly, the concentration that gives 50% inhibition – fell in the range of 100 to 1000 nM. With `CN(C)CCc1nc(Nc2cnc(-c3ccnc4c3ccn4C)c3c2C(=O)NC3)ccc1C1CCOC1` (stereo in doubt) [I-808, (S)-7-((6-(2-(dimothylami-no)ethyl)-5-(tetrahydrofuran-3-yl)pyridin-2-yl)amino)-4-(1-methyl-1H-pyrrolo[2,3-b]pyridin-4-yl)-2,3-dihydro-1H-pyrrolo[3,4-c]pyridin-1-one], the 50% inhibitory concentration (IC50) is less than 100 nM.

Take `CN1CCN(c2ccc(Nc3cnc(-c4cnc5c(F)cccn45)c4c3C(=O)NC4)nc2)C[C@H]1C(C)(C)O` (stereo in doubt) [I-621, (R]-4-(8-fluoroimidazo [1,2-a]pyridin-3-yl)-7-((5-(3-(2-hydroxypropan-2-yl)-4-methylpiperazin-1-yl)pyridin-2-yl)amino)-2.3-dihydro-1H-pyrrolo[3,4-c]pyridin-1-one]: the IC50 was less than 100 nM. `CN(C)C1CCCc2ccc(Nc3ccc(-c4cnc5cc(F)ccn45)c4c3C(=O)NC4)nc21` (stereo not drawn) [I-536, 7-[[8-(dimethylami-no)-5,6,7,8-tetrahydroquin-olin-2-yl]amino]-4-(7-fluoroimidazo [1,2-a]pyridin-3-yl)isoindolin-1-one Formic acid salt]: the IC50 was less than 100 nM. Take `CN(C)C1CN(c2nc(Nc3ccc(-c4cnc5cc(F)ccn45)c4c3C(=O)NC4)ccc2C2CCOC2)C1` (stereo in doubt) [I-787, (R)-7-((6-(3-(dimethylami-no)azetidin-1-yl)-5-(tetrahydrofuran-3-yl)pyridin-2-yl)amino)-4-(7-fluoroimidazo [1,2-a]pyridin-3-yl)isoindolin-1-one]: the IC50 is less than 100 nM.

As to `O=C1NCc2c(-c3cnc4cc(F)ccn34)ccc(Nc3cccc(O[C@@H]4CCC[C@@H]4O)n3)c21` (stereo in doubt) [I-353, 4-(7-fluoroimidazo [1,2-a]pyridin-3-yl)-7-((6-(((1S,2R)-2-hydroxycyclo-pentyl)oxy)py-ridin-2-yl)amino) isoin-dolin-1-one], the IC50 lay within 100 to 1000 nM. With `CC1(O)CCN(c2ccc(Nc3ccc(-c4cnc5cc(F)ccn45)c4c3C(=O)NC4)nc2)CC1` [I-397, 4-(7-fluoroimidazo [1,2-a]pyridin-3-yl)-7-((5-(4-hydroxy-4-methylpiperidin-1-yl)pyridin-2-yl)amino)isoin-dolin-1-one], the half-maximal inhibitory concentration (IC50) was less than 100 nM. With `COCC1CN(c2ccc(Nc3ccc(-c4cnc5cnccn45)c4c3C(=O)NC4)nc2)CCO1` (stereo in doubt) [I-333, (S)-4-(imidazo[1,2-a]pyrazin-3-yl)-7-((5-(2-(methoxymeth-yl)morpholino)-pyridin-2-yl)amino)isoin-dolin-1-one], the IC50 was less than 100 nM. In the case of `CN(C)Cc1nc(Nc2ccc(-c3cnc4cc(F)ccn34)c3c2C(=O)NC3)ccc1N1CCC(=O)N(C)CC1` [I-534, 7-[[6-[(dimethylamino)-methyl]-5-(4-methyl-5-oxo-1,4-diazepan-1-yl)-2-pyridyl]amino]-4-(7-fluoroimidazo [1,2-a]pyridin-3-yl)isoindolin-1-one Formic acid salt], the IC50 is less than 100 nM.

As for `O=C1NCc2c(-c3cnc4n3CCCC4)ccc(Nc3ccc(N4CCC(O)CC4)cn3)c21` [I-296, 7-((5-(4-hydroxy-piperidin-1-yl)pyridin-2-yl)amino)-4-(5,6,7,8-tetrahydro-imidazo[1,2-a]pyridin-3-yl)isoindolin-1-one], the IC50 was in the range of 100 to 1000 nM. Consider `CN(C)CCc1nc(Nc2ccc(-c3cnc4cc(F)ccn34)c3c2C(=O)NC3)ccc1N1CCOCC1` [I-840, 7-((6-(2-(dimethylami-no)ethyl)-5-morpholinopyridin-2-yl)amino)-4-(7-fluoroimidazo [1,2-a]pyridin-3-yl)isoindolin-1-one], for which the half-inhibitory concentration (IC50) was less than 100 nM.

`COC1(c2ccc(Nc3ccc(-c4cnc5cc(F)ccn45)c4c3C(=O)NC4)nc2CN(C)C)CCOCC1` [I-830, 7-((6-((dimethylamino)-methyl)-5-(4-methoxytetra-hydro-2H-pyran-4-yl)pyridin-2-yl)amino)-4-(7-fluoroimidazo [1,2-a]pyridin-3-yl)isoindolin-1-one]: the 50% inhibitory concentration (IC50) is less than 100 nM. Consider `Cn1ccc2c(-c3ccc(Nc4ncc(N5CCC(O)CC5)cc4F)c4c3CNC4=O)ccnc21` [I-424, 7-((3-fluoro-5-(4-hydroxy-piperidin-1-yl)pyridin-2-yl)amino)-4-(1-methyl-1H-pyrrolo[2,3-b]pyridin-4-yl)isoindolin-1-one], for which the half-inhibitory concentration (IC50) was less than 100 nM. Take `CC(C)([C@@H]1CN(c2ccc(Nc3ccc(-c4cnc5cc(F)ccn45)c4c3C(=O)NC4)nc2)CCO1)N1CC(O)C1` [I-697, (S)-4-(7-fluoroimidazo [1,2-a]pyridin-3-yl)-7-((5-(2-(2-(3-hydroxyazetidin-1-yl)propan-2-yl)morpholino)pyridin-2-yl)amino)isoin-dolin-1-one]: the IC50 was less than 100 nM. The value for `O=C1NCc2c(-c3cnn4cc(F)ccc34)ccc(Nc3ccc(N4CCC(O)CC4)cn3)c21` [I-465, 4-(6-fluoropyrazolo [1,5-a]pyridin-3-yl)-7-[[5-(4-hydroxy-1-piperidyl)-2-pyridyl]amino] isoindolin-1-one] was less than 100 nM; that for `O=C1NCc2c(-c3cnc4cccnn34)ccc(Nc3ccc(N4CCNCC4)cn3)c21` [I-82, 4-imidazo[1,2-b]pyridazin-3-yl-7-[(5-piperazin-1-yl-2-pyridyl)amino] isoindolin-1-one] was less than 100 nM. On to `CNC1CCN(c2ccc(Nc3ccc(-c4cnc5ccccn45)c4c3C(=O)NC4)nc2)CC1` [I-58, 4-imidazo[1,2-a]pyridin-3-yl-7-[[5-[4-(methylamino)-1-piperidyl]-2-pyridyl]amino] isoindolin-1-one], for which the IC50 was less than 100 nM. As for `O=C1NCc2c(-c3cnc4cc(F)ccn34)ccc(Nc3ccc(N4CCO[C@@H](C5(O)CC5)C4)cn3)c21` (single isomer, unassigned) [I-663], the IC50 was less than 100 nM.

Take `Cn1ccc2c(-c3ncc(Nc4cccc(N5C[C@@H](N6CCC6)CC5=O)n4)c4c3CNC4=O)ccnc21` [I-725, (S)-7-((6-(4-(azetidin-1-yl)-2-oxopyrrolidin-1-yl)pyridin-2-yl)amino)-4-(1-methyl-1H-pyrrolo[2,3-b]pyridin-4-yl)-2,3-dihydro-1H-pyrrolo[3,4-c]pyridin-1-one]: the half-inhibitory concentration (IC50) is less than 100 nM. As to `Cn1ccc2c(-c3ccc(Nc4ccc(N5CCCNCC5)cn4)c4c3CNC4=O)ccnc21` [I-79, 7-[[5-(1,4-diazepan-1-yl)-2-pyridyl]amino]-4-(1-methylpyrrolo [2,3-b]pyridin-4-yl)isoindolin-1-one], the IC50 is less than 100 nM. For the molecule `O=C1NCc2c(-c3cnc4cc(F)ccn34)ccc(Nc3ccc(N4CCC(CN5CCOCC5)CC4)cn3)c21` [I-428, 4-(7-fluoroimidazo [1,2-a]pyridin-3-yl)-7-((5-(4-(morpholinomethyl)piperidin-1-yl)pyridin-2-yl)amino)isoin-dolin-1-one], the IC50 was less than 100 nM.

Consider `Cn1ccc2c(-c3ccc(Nc4ccc(N5CCNCC5)cn4)c4c3C(C)(C)NC4=O)ccnc21` [I-273, 3,3-dimethyl-4-(1-methyl-1H-pyrrolo[2,3-b]pyridin-4-yl)-7-((5-(piperazin-1-yl)pyridin-2-yl)amino)isoindolin-1-one], for which the concentration for half-maximal inhibition (IC50) is greater than 1000 nM. Take `CN(C)CCc1nc(Nc2ccc(-c3cnc4cc(F)ccn34)c3c2C(=O)NC3)ccc1C1CCOCC1` [I-838, 7-((6-(2-(dimethylami-no)ethyl)-5-(tetrahydro-2H-pyran-4-yl)pyridin-2-yl)amino)-4-(7-fluoroimidazo [1,2-a]pyridin-3-yl)isoindolin-1-one]: the concentration for half-maximal inhibition (IC50) is less than 100 nM. On to `Cc1ccc2c(-c3ccc(Nc4ccc(N5CCC(O)CC5)cn4)c4c3CNC4=O)cnn2c1` [I-137, 7-[[5-(4-hydroxy-1-piperidyl)-2-pyridyl]amino]-4-(6-methylpyrazolo[1,5-a]pyridin-3-yl)isoindolin-1-one], for which the half-maximal inhibitory concentration (IC50) is less than 100 nM.

Consider `COc1cccn2c(-c3ccc(Nc4ccc(N5CCC(O)CC5)cn4)c4c3CNC4=O)cnc12` [I-166, 7-[[5-(4-hydroxy-1-piperidyl)-2-pyridyl]amino]-4-(8-methoxy-imidazo[1,2-a]pyridin-3-yl)isoindolin-1-one], for which the concentration for half-maximal inhibition (IC50) is less than 100 nM. For `Cc1cnn2c(-c3ccc(Nc4ccc(N5CCC(O)CC5)cn4)c4c3CNC4=O)ccnc12` [I-165, 7-[[5-(4-hydroxy-1-piperidxl)-2-pyridyl]amino]-4-(3-methylpyra-zolo[1,5-a]pyrimidin-7-yl)isoindolin-1-one], the concentration for half-maximal inhibition (IC50) was greater than 1000 nM. With `COc1ccc2c(-c3ncc(Nc4ccc(N5CCN(C)CC5)cn4)c4c3CNC4=O)c[nH]c2c1` [I-4, 4-(6-methoxy-1H-indol-3-yl)-7-[[5-(4-methylpiperazin-1-yl)-2-pyridyl]amino]-2,3-dihydropyrrolo [3,4-c]pyridin-1-one] the figure was 100 to 1000 nM; with `O=C1NCc2c(-c3cnn4c3CCCCC4)ccc(Nc3ccc(N4CCC(O)CC4)cn3)c21` [I-283, 7-((5-(4-hydroxy-piperidin-1-yl)pyridin-2-yl)amino)-4-(5,6,7,8-tetrahydro-4H-pyrazolo[1,5-a]azepin-3-yl)isoindolin-1-one], 100 to 1000 nM; with `CNC1CCN(c2cccc(Nc3cnc(-c4ccnc5c4ccn5C)c4c3C(=O)NC4)n2)CC1` [I-228, 7-[[6-[4-(methylamino)-1-piperidyl]-2-pyridyl]amino]-4-(1-methylpyrrolo [2,3-b]pyridin-4-yl)-2,3-dihydropyrrolo [3,4-c]pyridin-1-one], 100 to 1000 nM. Regarding `COC[C@@H]1CN(c2ccc(Nc3ccc(-c4cnc5c(F)c(C)ccn45)c4c3C(=O)NC4)nc2)CCO1` [I-579, (S)-4-(8-fluoro-7-methylimidazo [1,2-a]pyridin-3-yl)-7-((5-(2-(methoxymeth-yl)morpho-lino)pyridin-2-yl)amino)isoin-dolin-1-one], the concentration for half-maximal inhibition (IC50) is less than 100 nM.
